Test results published in the CheMixHub viscosity set.
± gives the uncertainty stated by the source.

Experiment: xn = mol fraction of the nth substance listed

CCC(C)=O + CCCCCCC
298 K, 101.33 kPa
Conditions	viscosity [mPa·s]
x2 = 0.1271	0.3686 ± 0.0051
x2 = 0.2092	0.3655 ± 0.0051
x2 = 0.3055	0.3637 ± 0.0051
x2 = 0.4593	0.3646 ± 0.0051
x2 = 0.5955	0.3649 ± 0.0051
x2 = 0.7044	0.3677 ± 0.0051
x2 = 0.8014	0.3721 ± 0.0052
x2 = 0.9011	0.3789 ± 0.0053

COC(C)=O + CCCCCCCC
298.15 K, 101.3 kPa
Conditions	viscosity [mPa·s]
x1 = 0.1268	0.4797 ± 0.0046
x1 = 0.2408	0.4518 ± 0.0044
x1 = 0.337	0.4361 ± 0.0043
x1 = 0.431	0.4213 ± 0.0042
x1 = 0.5066	0.4108 ± 0.0041
x1 = 0.5788	0.4021 ± 0.004
x1 = 0.644	0.3953 ± 0.004
x1 = 0.757	0.3849 ± 0.0039
x1 = 0.8528	0.3786 ± 0.0038

C1CCCCC1 + CCCCCCCCCC
Conditions	viscosity [mPa·s]
298.15 K, 101 kPa, x2 = 0.1357	0.8838 ± 0.012
298.15 K, 101 kPa, x2 = 0.1638	0.8739 ± 0.011
298.15 K, 101 kPa, x2 = 0.1909	0.8684 ± 0.011
298.15 K, 101 kPa, x2 = 0.2292	0.8595 ± 0.011
298.15 K, 101 kPa, x2 = 0.2677	0.8527 ± 0.011
298.15 K, 101 kPa, x2 = 0.2769	0.8484 ± 0.011
298.15 K, 101 kPa, x2 = 0.316	0.8438 ± 0.011
298.15 K, 101 kPa, x2 = 0.3563	0.8348 ± 0.011
298.15 K, 101.33 kPa, x1 = 0.1037	0.836 ± 0.005
298.15 K, 101.33 kPa, x1 = 0.1316	0.8418 ± 0.0072
298.15 K, 101.33 kPa, x1 = 0.2065	0.824 ± 0.005
298.15 K, 101.33 kPa, x1 = 0.254	0.8386 ± 0.0072
298.15 K, 101.33 kPa, x1 = 0.3077	0.818 ± 0.005
298.15 K, 101.33 kPa, x1 = 0.3302	0.8292 ± 0.0071
298.15 K, 101.33 kPa, x1 = 0.4003	0.818 ± 0.005
298.15 K, 101.33 kPa, x1 = 0.467	0.8331 ± 0.0071
298.15 K, 101.33 kPa, x1 = 0.5005	0.818 ± 0.005
298.15 K, 101.33 kPa, x1 = 0.5494	0.8222 ± 0.007
298.15 K, 101.33 kPa, x1 = 0.6	0.814 ± 0.005
298.15 K, 101.33 kPa, x1 = 0.6289	0.8303 ± 0.0071
298.15 K, 101.33 kPa, x1 = 0.7015	0.8247 ± 0.0071
298.15 K, 101.33 kPa, x1 = 0.7045	0.812 ± 0.005
298.15 K, 101.33 kPa, x1 = 0.7719	0.8409 ± 0.0072
298.15 K, 101.33 kPa, x1 = 0.802	0.819 ± 0.006
298.15 K, 101.33 kPa, x1 = 0.8324	0.8412 ± 0.0072
298.15 K, 101.33 kPa, x1 = 0.8857	0.8612 ± 0.0073
298.15 K, 101.33 kPa, x1 = 0.9001	0.845 ± 0.006
298.15 K, 101.33 kPa, x1 = 0.9309	0.8746 ± 0.0074
298.15 K, 101.33 kPa, x2 = 0.0178	0.8968 ± 0.0076
303.15 K, 101.33 kPa, x1 = 0.1037	0.78 ± 0.005
303.15 K, 101.33 kPa, x1 = 0.2065	0.766 ± 0.005
303.15 K, 101.33 kPa, x1 = 0.3077	0.761 ± 0.005
303.15 K, 101.33 kPa, x1 = 0.4003	0.761 ± 0.005
303.15 K, 101.33 kPa, x1 = 0.5005	0.76 ± 0.005
303.15 K, 101.33 kPa, x1 = 0.6	0.756 ± 0.005
303.15 K, 101.33 kPa, x1 = 0.7045	0.754 ± 0.005
303.15 K, 101.33 kPa, x1 = 0.802	0.759 ± 0.005
303.15 K, 101.33 kPa, x1 = 0.9001	0.78 ± 0.005
308.15 K, 101 kPa, x1 = 0.0439	0.7345 ± 0.012
308.15 K, 101 kPa, x1 = 0.175	0.7272 ± 0.012
308.15 K, 101 kPa, x1 = 0.2106	0.7254 ± 0.012
308.15 K, 101 kPa, x1 = 0.3096	0.7164 ± 0.012
308.15 K, 101 kPa, x1 = 0.3863	0.7147 ± 0.012
308.15 K, 101 kPa, x1 = 0.4943	0.7122 ± 0.012
308.15 K, 101 kPa, x1 = 0.5864	0.7133 ± 0.012
308.15 K, 101 kPa, x1 = 0.7303	0.7189 ± 0.012
308.15 K, 101 kPa, x1 = 0.8805	0.7325 ± 0.012
308.15 K, 101 kPa, x1 = 0.9385	0.7399 ± 0.012
308.15 K, 101.33 kPa, x1 = 0.1037	0.728 ± 0.005
308.15 K, 101.33 kPa, x1 = 0.2065	0.713 ± 0.005
308.15 K, 101.33 kPa, x1 = 0.3077	0.708 ± 0.005
308.15 K, 101.33 kPa, x1 = 0.4003	0.71 ± 0.005
308.15 K, 101.33 kPa, x1 = 0.5005	0.71 ± 0.005
308.15 K, 101.33 kPa, x1 = 0.6	0.702 ± 0.005
308.15 K, 101.33 kPa, x1 = 0.7045	0.699 ± 0.005
308.15 K, 101.33 kPa, x1 = 0.802	0.703 ± 0.005
308.15 K, 101.33 kPa, x1 = 0.9001	0.716 ± 0.005
313.15 K, 101 kPa, x1 = 0.0439	0.6849 ± 0.012
313.15 K, 101 kPa, x1 = 0.175	0.6717 ± 0.012
313.15 K, 101 kPa, x1 = 0.2106	0.6706 ± 0.012
313.15 K, 101 kPa, x1 = 0.3096	0.666 ± 0.011
313.15 K, 101 kPa, x1 = 0.3863	0.6618 ± 0.011
313.15 K, 101 kPa, x1 = 0.4943	0.6596 ± 0.011
313.15 K, 101 kPa, x1 = 0.5864	0.6577 ± 0.011
313.15 K, 101 kPa, x1 = 0.7303	0.6684 ± 0.011
313.15 K, 101 kPa, x1 = 0.8805	0.6936 ± 0.012
313.15 K, 101 kPa, x1 = 0.9385	0.7077 ± 0.012

COC(C)=O + CCCCCCCCCC
298.15 K, 101.3 kPa
Conditions	viscosity [mPa·s]
x1 = 0.0803	0.7987 ± 0.0072
x1 = 0.1876	0.7291 ± 0.0066
x1 = 0.3354	0.6485 ± 0.006
x1 = 0.4452	0.5969 ± 0.0055
x1 = 0.476	0.5809 ± 0.0054
x1 = 0.5538	0.5456 ± 0.0051
x1 = 0.618	0.5186 ± 0.0049
x1 = 0.7363	0.4714 ± 0.0046
x1 = 0.8315	0.4356 ± 0.0043

CC(CC(C)(C)C)CP(=O)([O-])CC(C)CC(C)(C)C.CCCC[P+](C)(CCCC)CCCC (stereo not drawn) + CCCCCCCCCCCC
viscosity [mPa·s], 101 kPa
Conditions	298.15 K	303.15 K	308.15 K	313.15 K	318.15 K	323.15 K
x2 = 0.25	318 ± 15	214 ± 9	159 ± 6	112 ± 4	81.6 ± 2.8	60.6 ± 2.1
x2 = 0.43	88.6 ± 4.3	67.8 ± 2.2	53.6 ± 1.7	41.9 ± 1.3	34.4 ± 1.1	27.1 ± 0.9
x2 = 0.56	39.4 ± 1.2	31 ± 0.9	25.4 ± 0.8	21.7 ± 0.6	18.3 ± 0.5	16.1 ± 0.5

COC(C)=O + CCCCCCCCCCCC
298.15 K, 101.3 kPa
Conditions	viscosity [mPa·s]
x1 = 0.09	1.243 ± 0.011
x1 = 0.213	1.08 ± 0.0095
x1 = 0.3361	0.9577 ± 0.0085
x1 = 0.4514	0.8306 ± 0.0074
x1 = 0.5533	0.7377 ± 0.0067
x1 = 0.6236	0.6777 ± 0.0062
x1 = 0.6972	0.6144 ± 0.0057
x1 = 0.7671	0.557 ± 0.0052
x1 = 0.8924	0.4527 ± 0.0044
x1 = 0.9377	0.4171 ± 0.0041

CCCCCCCC(=O)OCC + CCCCCCCCCCCCCCCC
Conditions	viscosity [mPa·s]
295.04 K, 103 kPa, x2 = 0.5	2.176 ± 0.088
298.65 K, 103 kPa, x2 = 0.25	1.72 ± 0.07
312.63 K, 101 kPa, x2 = 0.5	1.583 ± 0.064

COC(C)=O + CCCCCCCCCCCCCCCC
298.15 K, 101.3 kPa
Conditions	viscosity [mPa·s]
x1 = 0.0393	2.924 ± 0.027
x1 = 0.118	2.619 ± 0.024
x1 = 0.3657	1.819 ± 0.016
x1 = 0.4814	1.491 ± 0.013
x1 = 0.5357	1.35 ± 0.012
x1 = 0.652	1.086 ± 0.0096
x1 = 0.7625	0.8431 ± 0.0076
x1 = 0.8682	0.6349 ± 0.0059
x1 = 0.9609	0.4379 ± 0.0043
